Measurements published in PubChem BioAssay AID264 (DTP/NCI, 2004).
Values joined by “and” are separate entries in the source; they are usually repeats but may differ in a detail not shown here. Equal entries are not always repeated. Results filed as inconclusive are left out.

Test system: nude mice, LX-1 lung xenograft intrarenal, tumor weight T/C
Experiment: NCI In Vivo Anticancer Drug Screen. Data for tumor model Human Lung LX-1 Xenograft (intrarenal inoculation) in NU/NU Swiss (nude) mice
Conditions: endpoint: mean tumor weight change, higher = larger tumour
Method in brief: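 Activity was scored by measuring tumors in treated animals and in vehicle controls, then reporting the treated result as a fraction of the control result.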

[1] = dose: 150.0 mg/kg/injection, schedule: Q04DX003 (sc), vehicle: saline with Tween-80
[2] = dose: 1200.0 mg/kg/injection, schedule: Q04DX003 (sc), vehicle: saline with Tween-80
[3] = dose: 2400.0 mg/kg/injection, schedule: Q04DX003 (sc), vehicle: saline with Tween-80
[4] = dose: 150.0 mg/kg/injection, schedule: Q04DX003 (sc), vehicle: Klucel (hydroxypropylcellulose) (HPC)
[5] = dose: 300.0 mg/kg/injection, schedule: Q04DX003 (sc), vehicle: Klucel (hydroxypropylcellulose) (HPC)
[6] = dose: 600.0 mg/kg/injection, schedule: Q04DX003 (sc), vehicle: Klucel (hydroxypropylcellulose) (HPC)
[7] = dose: 1200.0 mg/kg/injection, schedule: Q04DX003 (sc), vehicle: Klucel (hydroxypropylcellulose) (HPC)
[8] = dose: 75.0 mg/kg/injection, schedule: Q04DX003 (sc), vehicle: saline with Tween-80
[9] = dose: 300.0 mg/kg/injection, schedule: Q04DX003 (sc), vehicle: saline with Tween-80
[10] = dose: 600.0 mg/kg/injection, schedule: Q04DX003 (sc), vehicle: saline with Tween-80
[11] = dose: 2400.0 mg/kg/injection, schedule: Q04DX003 (sc), vehicle: Klucel (hydroxypropylcellulose) (HPC)
[12] = dose: 100.0 mg/kg/injection, schedule: Q04DX003 (sc), vehicle: saline with Tween-80
[13] = dose: 200.0 mg/kg/injection, schedule: Q04DX003 (sc), vehicle: saline with Tween-80
[14] = dose: 400.0 mg/kg/injection, schedule: Q04DX003 (sc), vehicle: saline with Tween-80
[15] = dose: 800.0 mg/kg/injection, schedule: Q04DX003 (sc), vehicle: saline with Tween-80
[16] = dose: 50.0 mg/kg/injection, schedule: Q04DX003 (sc), vehicle: saline with Tween-80
[17] = dose: 12.5 mg/kg/injection, schedule: Q01DX010 (sc), vehicle: saline

Nc1ccc(Cl)cc1N
T/C (dose: 450.0 mg/kg/injection, schedule: Q04DX003 (sc), vehicle: saline with Tween-80): 115 % of control | T/C (dose: 900.0 mg/kg/injection, schedule: Q04DX003 (sc), vehicle: saline with Tween-80): 92 % of control

N#CC(=C1C=CC(=NO)C=C1)c1ccc(Cl)cc1
T/C [1]: 173 % of control | T/C [2]: 175 % of control and 198 % of control | T/C [3]: 180 % of control

O=C1C2(Cl)C3(Cl)C4(Cl)C(Cl)(Cl)C5(Cl)[C@]3(Cl)C1(Cl)[C@]5(Cl)C24Cl (stereo not given in full)
T/C (dose: 37.5 mg/kg/injection, schedule: Q04DX003 (sc), vehicle: Klucel (hydroxypropylcellulose) (HPC)): 118 % of control | T/C (dose: 75.0 mg/kg/injection, schedule: Q04DX003 (sc), vehicle: Klucel (hydroxypropylcellulose) (HPC)): 95 % of control | T/C [4]: 78 % of control

C1CCC2OCCOCCOC3CCCCC3OCCOCCOC2C1 (stereo not given)
T/C (dose: 9.38 mg/kg/injection, schedule: Q04DX003 (sc), vehicle: Klucel (hydroxypropylcellulose) (HPC)): 170 % of control | T/C (dose: 18.75 mg/kg/injection, schedule: Q04DX003 (sc), vehicle: Klucel (hydroxypropylcellulose) (HPC)): 159 % of control

Nc1nc(=O)n(C2OC(CO)C(O)C2O)cc1F (stereo not given)
T/C [4]: 74 % of control | T/C [5]: 68 % of control | T/C [6]: 84 % of control | T/C [7]: 48 % of control

CC(=O)CC(C)=O.CC(=O)CC(C)=O.O=N[O-].O=N[O-].[Co]
T/C [8]: 114 % of control

CCOC(=O)CNC(=O)Sc1ccc(C(C)(C)C)cc1
T/C [4]: 89 % of control | T/C [5]: 99 % of control | T/C [6]: 76 % of control | T/C [7]: 95 % of control

C[C@H](CCC[C@H](C)OS(=O)(=O)c1ccccc1)OS(=O)(=O)c1ccccc1
T/C [1]: 87 % of control | T/C [9]: 45 % of control

c1ccc2c(c1)-c1ccccc1C1NC21 (stereo not given)
T/C (dose: 37.5 mg/kg/injection, schedule: Q04DX003 (sc), vehicle: saline with Tween-80): 82 % of control | T/C [8]: 56 % of control | T/C [1]: 45 % of control

N[C@@H](Cc1ccc(N(CCCl)CCCl)cc1)C(=O)O
T/C (dose: 1.0 mg/kg/injection, schedule: Q01DX010 (sc), vehicle: saline): 107 % of control

O=C(O)C1Cc2nc[nH]c2CN1CO (stereo not given)
T/C [9]: 74 % of control | T/C [10]: 85 % of control | T/C [2]: 41 % of control | T/C [3]: 87 % of control

O=C1CN(Cc2ccc3c(c2)OCO3)NO1
T/C [8]: 63 % of control | T/C [1]: 76 % of control | T/C [9]: 63 % of control | T/C [10]: 46 % of control

CN(C)C(=O)SC1=C(c2c(Cl)cccc2Cl)C(=O)c2ccccc21
T/C [5]: 84 % of control | T/C [6]: 106 % of control | T/C [7]: 65 % of control | T/C [11]: 92 % of control

Nc1nc(-c2cccc3ccccc23)cc2ccccc12
T/C [12]: 107 % of control | T/C [13]: 91 % of control | T/C [14]: 94 % of control | T/C [15]: 53 % of control

CC1=C(/C=C/C(C)=C/C=C/C(C)=C/CO)C(C)(C)CCC1
T/C [16]: 105 % of control | T/C [12]: 150 % of control | T/C [14]: 111 % of control

CC1CN=C(c2ccc(NC(=O)c3ccc(C(=O)Nc4ccc(C5=NCC(C)N5)cc4)cc3)cc2)N1 (stereo not given)
T/C (dose: 50.0 mg/kg/injection, schedule: Q01DX010 (sc), vehicle: Klucel (hydroxypropylcellulose) (HPC)): 213 % of control | T/C (dose: 100.0 mg/kg/injection, schedule: Q01DX010 (sc), vehicle: Klucel (hydroxypropylcellulose) (HPC)): 68 % of control | T/C (dose: 200.0 mg/kg/injection, schedule: Q01DX010 (sc), vehicle: Klucel (hydroxypropylcellulose) (HPC)): 94 % of control | T/C (dose: 400.0 mg/kg/injection, schedule: Q01DX010 (sc), vehicle: Klucel (hydroxypropylcellulose) (HPC)): 84 % of control

O=S(=O)(O)O.[NH-]C1CCCCC1[NH-].[Pt+2] (stereo not given)
T/C (dose: 0.63 mg/kg/injection, schedule: Q01DX010 (sc), vehicle: dextrose): 85 % of control | T/C (dose: 1.25 mg/kg/injection, schedule: Q01DX010 (sc), vehicle: dextrose): 90 % of control | T/C (dose: 2.5 mg/kg/injection, schedule: Q01DX010 (sc), vehicle: dextrose): 82 % of control

CNC(=O)ON(C(C)=O)C(=O)NC
T/C [17]: 109 % of control | T/C (dose: 25.0 mg/kg/injection, schedule: Q01DX010 (sc), vehicle: saline): 102 % of control

C[n+]1ccc2cc(N)c3c4ccccc4sc3c2c1
T/C (dose: 6.25 mg/kg/injection, schedule: Q04DX003 (sc), vehicle: saline with Tween-80): 67 % of control | T/C (dose: 12.5 mg/kg/injection, schedule: Q04DX003 (sc), vehicle: saline with Tween-80): 93 % of control | T/C (dose: 25.0 mg/kg/injection, schedule: Q04DX003 (sc), vehicle: saline with Tween-80): 70 % of control | T/C [16]: 74 % of control

O=C(NC1CCCCC1)OCc1c(COC(=O)NC2CCCCC2)c(-c2ccc(Cl)c(Cl)c2)n2c1CCC2
T/C [9]: 88 % of control | T/C [10]: 94 % of control | T/C [2]: 104 % of control | T/C [3]: 104 % of control

NC(C(=O)O)c1ccc(CBr)cc1 (stereo not given)
T/C (dose: 300.0 mg/kg/injection, schedule: Q04DX003 (sc), vehicle: acid diluted with saline): 96 % of control

C=C[Si]12OCCN(CCO1)CCO2
T/C [5]: 250 % of control | T/C [6]: 212 % of control | T/C [7]: 163 % of control

CCc1ccc(C2=C(O)C(=O)C(c3ccc(CC)cc3)=C(O)C2=O)cc1
T/C [12]: 83 % of control | T/C [13]: 100 % of control | T/C [14]: 64 % of control | T/C [15]: 56 % of control

C[C@]12CC[C@@H]3c4ccc(O)cc4CC[C@H]3[C@@H]1CC[C@@H]2O
T/C [5]: 120 % of control | T/C [6]: 101 % of control | T/C [7]: 103 % of control | T/C [11]: 53 % of control

Cc1[nH]c(=O)[nH]c(=O)c1N(CCF)CCCl
T/C (dose: 40.0 mg/kg/injection, schedule: Q01DX010 (sc), vehicle: Klucel (hydroxypropylcellulose) (HPC)): 19 % of control and 34 % of control and 36 % of control

Cc1c2cc(Cl)c3ccccc3c2c[n+]2ccccc12
T/C [9]: 66 % of control | T/C [10]: 81 % of control | T/C [2]: 70 % of control

Nc1nncs1
T/C [17]: 104 % of control

O=Cc1c(O)c2ccccc2[nH]c1=O
T/C [1]: 84 % of control | T/C [9]: 99 % of control | T/C [10]: 90 % of control | T/C [2]: 50 % of control

CCC1=C[C@H]2CN(CCc3c([nH]c4ccccc34)[C@@](C(=O)OC)(c3cc4c(cc3OC)N(C)[C@H]3[C@@](O)(C(=O)NC)[C@H](OC(C)=O)[C@]5(CC)C=CCN6CC[C@]43[C@@H]65)C2)C1
T/C (dose: 0.5 mg/kg/injection, schedule: Q04DX003 (sc), vehicle: water): 63 % of control | T/C (dose: 1.0 mg/kg/injection, schedule: Q04DX003 (sc), vehicle: water): 67 % of control | T/C (dose: 4.0 mg/kg/injection, schedule: Q04DX003 (sc), vehicle: water): 10 % of control

N[C@H](C(=O)O)[C@@H]1CC(Cl)=NO1
T/C (dose: 2.0 mg/kg/injection, schedule: Q01DX010 (sc), vehicle: saline): 16 % of control | T/C (dose: 2.0 mg/kg/injection, schedule: Q01DX010 (sc), vehicle: suspension in saline): 30 % of control | T/C (dose: 4.0 mg/kg/injection, schedule: Q01DX010 (sc), vehicle: suspension in saline): 33 % of control | T/C (dose: 8.0 mg/kg/injection, schedule: Q01DX010 (sc), vehicle: suspension in saline): 45 % of control | T/C (dose: 16.0 mg/kg/injection, schedule: Q01DX010 (sc), vehicle: suspension in saline): 15 % of control

N=C1CCCS1
T/C (dose: 18.75 mg/kg/injection, schedule: Q04DX003 (sc), vehicle: saline): 121 % of control | T/C (dose: 37.5 mg/kg/injection, schedule: Q04DX003 (sc), vehicle: saline): 87 % of control | T/C (dose: 75.0 mg/kg/injection, schedule: Q04DX003 (sc), vehicle: saline): 113 % of control

CC(=O)Nc1ccc(S(=O)(=O)CO)cc1
T/C [9]: 90 % of control | T/C [10]: 66 % of control | T/C [2]: 96 % of control | T/C [3]: 67 % of control

CCN=C=NCCCN(C)C
T/C (dose: 25.0 mg/kg/injection, schedule: Q04DX003 (sc), vehicle: saline): 99 % of control | T/C (dose: 50.0 mg/kg/injection, schedule: Q04DX003 (sc), vehicle: saline): 102 % of control | T/C (dose: 100.0 mg/kg/injection, schedule: Q04DX003 (sc), vehicle: saline): 84 % of control
